Laboratory results taken from patent US20240091244A1, “PHARMACEUTICAL COMPOSITIONS COMPRISING PICROSIDE” (SAVA HEALTHCARE LIMITED, priority 2021, published 2024).

Assays:
[1] = tested on: mice with cyclophosphamide induced neutropenia; assay: Administration of Picroside I / Picroside II (injectable, subcutaneous) to mice with cyclophosphamide induced neutropenia; assay type: in vivo, Swiss albino mice; settings: for changes in body weight / clinical signs of toxicity and mortality: 1 mg/mouse/day subcutaneous for 5 days; for Total leukocyte count on Day 10 as compared to Group 2 / neutrophil count on Day 10 as compared to Group 2 / % Neutrophil (day 10) / neutrophil count compared with Group 1 (Normal control): 1 mg/mouse/day subcutaneous; for Total leukocyte count on Day 10 as compared to Group 2 / neutrophil count on Day 10 as compared to Group 2 / % Neutrophil (day 10): day 5 to day 10; for % Neutrophil (day 10) / neutrophil count compared with Group 1 (Normal control): day 10; for neutrophil count compared with Group 1 (Normal control): P<0.01; for % Neutrophil (day 3): day 3 after cyclophosphamide 150 mg/kg ip, before treatment (baseline of the group); for reversal of cyclophosphamide induced neutropenia: injection
Description: (§1) In-house bred Swiss albino mice were housed under standard laboratory conditions, such as, air-conditioned with adequate fresh air supply (air changes 12-15 per hour), room temperature of 21.1-23.2° C. and relative humidity of 55-69%, with 12 hours light and 12 hours dark cycle were strictly maintained in the experimental room. The mice were acclimatized for a minimum period of seven days to laboratory conditions.
(§2) The selected Swiss albino mice were randomized into four groups based on body weight, each group comprising of 6 mice. Group 2 and 3, 4 animals were treated with 150 mg/kg of cyclophosphamide through intraperitoneal route on Day 0 to initiate inducing neutropenia. On Day 3, the animals of group 2, 3 and 4, reflected the cyclophosphamide induced neutropenication when compared with Group 1 (Control) mice. On day 4, mice from Groups 2, 3 and 4 were again injected with a single dose of 100 mg/kg of cyclophosphamide. Total and differential count (neutrophils, lymphocytes, and monocytes) was recorded on day 3. The neutrophil count on day 3 was compared between groups using One-way ANOVA followed by Dunnett's test or student ‘t’ test. P<0.05 was considered statistically significant.
Cyclophosphamide related neutropenia was induced in mice subjects using method according to Example 6. Injectable composition was prepared using the method according to Example 5. The Picroside I composition was administered through subcutaneous route at a dose of 1 mg/mouse/day to the animals in Group 3 for 5 days respectively starting from day 5 ending at day 10. Picroside II composition was administered through subcutaneous route at a dose of 1 mg/mouse/day to the animals in Group 4 for 5 days respectively starting from day 5 ending at day 10. On day 10, again blood was collected to count the total leucocyte count and differential count (neutrophils, lymphocytes, and monocytes) manually. The neutrophil count on day 10 was compared between groups using One-way ANOVA followed by Dunnett's test or student ‘t’ test. P<0.05 was considered statistically significant.

[2] = tested on: mice with cyclophosphamide induced neutropenia; assay: Comparative administration of Picroside I and G-CSF to mice with cyclophosphamide induced neutropenia; assay type: in vivo, Swiss albino mice; settings: for % Neutrophil (day 0): day 0, before cyclophosphamide (baseline of the group); for % Neutrophil (day 3): day 3 after cyclophosphamide, before treatment; for % Neutrophil (day 10): Picroside I 1 mg/mouse/day, G-CSF 2 μg/mouse/day
Description: as §1, §2
(§3) Cyclophosphamide related neutropenia was induced in mice subjects using method according to Example 6. Group 1 was marked vehicle control group, Group 2 was marked cyclophosphamide control, Group 3 was marked treated with Picroside I and Group 4 was marked treated with G-CSF treated. The Picroside I composition was administered through subcutaneous route at a dose of 1 mg/mouse/day to the animals in Group 3 for 5 days respectively starting from day 5 ending at day 10. The G-CSF composition was administered through subcutaneous route at a dose of 2 μg/mouse/day to the animals in Group 4 for 5 days respectively starting from day 5 ending at day 10. On day 10, again blood was collected to count the total leucocyte count and differential count (neutrophils, lymphocytes, and monocytes) manually. The neutrophil count on day 10 was compared between groups using One-way ANOVA followed by Dunnett's test or student ‘t’ test. P<0.05 was considered statistically significant. Additionally, hepatotoxicity was observed by investigating ALT and AST levels.

[3] = Stability analysis of injectable composition of Picroside I and 2.5% PEG400 by HPLC quantitative analysis; assay type: physicochemical; settings: 1 mg Picroside I in 2.5% PEG400; for % Result (1 month): HPLC 220 nm
Description: The purified Picroside I prepared by the methods according to Example 1, 2, and 3 was used for the said injection composition. Injection preparation was prepared by dissolving 1 mg Picroside I in solvent, controlling pH to about 4-land then filling in ampules followed by subsequent sterilizing by conventional injection preparation method. For comparative compositions, different solvents such as methanol, 2.5% PEG400, 5% PEG400, 5% DMSO, 5% ethyl lactate, and 1.4% propylene glycol were used for Picroside I solubility.
The solutions were kept for sonication for 15 min and left the solutions stand at room temperature for 1 hour. HPLC was used for quantitative analysis.
Three compositions of 1 mg Picroside I and 2.5% PEG400 were kept for sonication for 15 min and left to stand at room temperature (RT), 2-8° C. and 40° C., 75% RH for 1 month. and injected (20 μL) into HPLC at 220 nm for quantitative analysis.

[4] = tested on: mice with cyclophosphamide induced neutropenia; assay: Administration of Picroside I (oral tablets) to mice with cyclophosphamide induced neutropenia; assay type: in vivo, Swiss albino mice; settings: for Neutrophil (10^9/L) (day 10) / WBC (10^9/L) (day 10): day 5 to day 10; for Neutrophil (10^9/L) (day 3) / WBC (10^9/L) (day 3): day 3, before treatment (baseline)
Description: as §1, §2
Cyclophosphamide related neutropenia was induced in mice subjects using method according to Example 6. Oral tablet composition was prepared using the method according to Example 4. The Picroside I composition was administered orally at a dose of 2 mg/mouse/day (2 tablets) to the animals in Group 1 and Group 2 for 5 days respectively starting from day 5 ending at day 10. For a comparative study, oral composition was administered using distilled water and PEG. Specifically, oral tablets were administered in distilled water to mice in Group 1 and in 5% PEG to mice in Group 2. On day 10, again blood was collected to count the total leucocyte count and differential count (neutrophils, lymphocytes, and monocytes) manually. The neutrophil count on day 10 was compared between groups using One-way ANOVA followed by Dunnett's test or student ‘t’ test. P<0.05 was considered statistically significant.

[5] = tested on: cyclophosphamide induced hepatotoxicity; assay: Effect in cyclophosphamide induced hepatotoxicity (AST and ALT levels); assay type: in vivo, Swiss albino mice; settings: for ALT (IU/L) / AST (IU/L): day 5 to day 10, Picroside I 1 mg/mouse/day, G-CSF 2 μg/mouse/day, cyclophosphamide treated mice
Description: as §2, §3

[6] = Picroside I 1 mg/mouse/day vs G-CSF 2 μg/mouse/day, subcutaneous
[7] = 2 mg/mouse/day oral, in distilled water (Group 1) and in 5% PEG (Group 2)
[8] = Group 1, 2 mg/mouse/day oral (2 tablets) in distilled water
[9] = Group 1, tablets in distilled water
[10] = Group 2, 2 mg/mouse/day oral (2 tablets) in 5% PEG
[11] = 1 mg/mouse/day subcutaneous, p<0.001

## COc1cc(C(=O)O[C@H]2[C@@H]3C=CO[C@@H](O[C@@H]4O[C@H](CO)[C@@H](O)[C@H](O)[C@H]4O)[C@@H]3[C@@]3(CO)O[C@@H]23)ccc1O [Picroside II]
[1]
  changes in body weight: no treatment related changes in body weight
  clinical signs of toxicity and mortality: no clinical signs of toxicity and mortality
  Total leukocyte count on Day 10 as compared to Group 2: significant increase
  neutrophil count on Day 10 as compared to Group 2: significant increase
  % Neutrophil (day 10): 32.83%
  neutrophil count compared with Group 1 (Normal control): increased neutrophil count significantly
  % Neutrophil (day 3): 21.83%
  reversal of cyclophosphamide induced neutropenia: significantly reverses

## O=C(/C=C/c1ccccc1)OC[C@H]1O[C@@H](O[C@@H]2OC=C[C@H]3[C@H](O)[C@@H]4O[C@]4(CO)[C@@H]23)[C@H](O)[C@@H](O)[C@@H]1O [Picroside I]
[2]; 1 mg/mouse/day subcutaneous, day 5 to day 10
  effect on cyclophosphamide induced decrease in % neutrophil: alleviation
[2]; [6]
  observed changes in % neutrophil relative to G-CSF treatment: comparable to that of G-CSF treatment
[2]
  % Neutrophil (day 0): 46.00%
  % Neutrophil (day 3): 6.600%
[2]; subcutaneous, day 5 to day 10
  % Neutrophil (day 10): 23.90%
[3]; RT, 2-8° C. and 40° C., 75% RH
  stability over a period of 1 month: excellent stability
[3]; stored at 2-8° C. for 1 month
  % Result (1 month): 96.59%
[3]; stored at 40° C., 75% RH for 1 month
  % Result (1 month): 86.89%
[3]; stored at RT for 1 month
  % Result (1 month): 102.33%
[1]
  changes in body weight: no treatment related changes in body weight
  clinical signs of toxicity and mortality: no clinical signs of toxicity and mortality
  Total leukocyte count on Day 10 as compared to Group 2: significant increase
  neutrophil count on Day 10 as compared to Group 2: significant increase
  % Neutrophil (day 10): 32.67%
  neutrophil count compared with Group 1 (Normal control): increased neutrophil count significantly
  % Neutrophil (day 3): 20.83%
  reversal of cyclophosphamide induced neutropenia: significantly reverses
[4]; 2 mg/mouse/day oral for 5 days
  changes in body weight: no treatment related changes in body weight
  clinical signs of toxicity and mortality: no clinical signs of toxicity and mortality
[4]; [7]
  Total leukocyte count on Day 10 as compared that on Day 3: significant increase
  neutrophil count on Day 10 as compared that on Day 3: significant increase
[4]; [8]
  Neutrophil (10^9/L) (day 10): 1.58 10^9/L
  WBC (10^9/L) (day 10): 9.5 10^9/L
[4]; [9]
  Neutrophil (10^9/L) (day 3): 0.38 10^9/L
  WBC (10^9/L) (day 3): 1.75 10^9/L
[4]; [10]
  Neutrophil (10^9/L) (day 10): 1.03 10^9/L
  WBC (10^9/L) (day 10): 8.9 10^9/L
[4]; Group 2, tablets in 5% PEG
  Neutrophil (10^9/L) (day 3): 0.31 10^9/L
  WBC (10^9/L) (day 3): 2.01 10^9/L
[4]; oral tablets
  reversal of cyclophosphamide induced neutropenia: significantly reverses
[5]; [11]
  ALT levels when compared to the Group 2: significant reversal
  AST levels when compared to the Group 2: significant reversal
[5]; [6]
  decrease in AST and ALT relative to G-CSF treatment: comparable
[5]; subcutaneous
  ALT (IU/L): 37.16 IU/L
  AST (IU/L): 50.32 IU/L

B1: G-CSF: Granulocyte Colony Stimulating Factor, FDA approved drug for treating severe neutropenia; comparator (protein, UniProt P09919 31-207, looked up)
Granulocyte …: TPLGPASSLPQSFLLKCLEQVRKIQGDGAALQEKLVSECATYKLCHPEELVLLGHSLGIPWAPLSSCPSQALQLAGCLSQLHSGLFLYQGLLQALEGISPELGPTLDTLQLDVADFATTIWQQMEELGMAPALQPTQGAMPAFASAFQRRAGGVLVASHLQSFLEVSYRVLRHLAQP
[2]
  % Neutrophil (day 0): 46.10%
  % Neutrophil (day 3): 6.700%
[2]; subcutaneous, day 5 to day 10
  % Neutrophil (day 10): 28.20%
[5]; subcutaneous
  ALT (IU/L): 36.17 IU/L
  AST (IU/L): 50.54 IU/L
